Test results published in patent publication US20130053336A1, “TREATMENT OF CHLAMYDIACEAE INFECTIONS BY MEANS OF BETA-LACTAMS” (priority 2010, published 2013).
“Also recorded” adds a separate entry of the source.

System: Chlamydia trachomatis L2 serovar 16S rRNA
Test: 16S rRNA expression by RT-PCR
Format: cell-based
Conditions: 100 hpi
Description: HeLa cells were infected with the Chlamydia trachomatis L2 serovar and treated or not treated with penicillin G at 3 hpi. At 100 hpi, the cells were collected and the RNA extracted carefully to avoid DNA contamination. Half of the isolated RNA was used for reverse transcription. The RNA and cDNA were amplified by PCR with primers for 16S (bacterial) and 18S (eukaryotic) rRNA in order to study bacterial activity and to verify cDNA quality and quantity. PCR of the RNA is used to verify the absence of DNA contamination. It also indicates the absence of contaminant in the PCR. […] Roughly 1×10^5 HeLa cells were infected and exposed or not exposed to penicillin G, as described above. At 100 hpi, total RNA were isolated using the RNeasy Plus Mini Kit (Qiagen, Hilden, Germany). The samples were treated with DNase I for 1 hour at 37° C. The enzyme was then denatured at 70° C. for 10 min. The RNA were reverse-transcribed into cDNA using random hexamer primers and AffinityScript Multiple Temperature Reverse Transcriptase (Agilent, Santa Clara, Calif., USA) and by following the manufacturer's instructions for RT-PCR. cDNA and RNA were amplified by PCR with Tag Polymerase (Invitrogen, Carlsbad, Calif., USA) in order to verify the absence of DNA contamination. The primers used to amplify 16S rRNA are: A semi-quantitative analysis of the PCR products was carried out by agarose gel electrophoresis and UV detection.

## CC1(C)S[C@@H]2[C@H](NC(=O)Cc3ccccc3)C(=O)N2[C@H]1C(=O)O [Penicillin G, benzylpenicillin]
  16S rRNA expression in infected cells: do not produce bacterial RNA; also recorded: express 18S RNA, but not 16S
